Assay results from PubChem BioAssay AID192 (DTP/NCI, 2004).
Where “and” joins values, the source holds several entries; their conditions need not be identical. Equal entries are not always repeated. Inconclusive results and toxic doses are left out.

Test system: BDF1 mice, B16 melanoma ip, median survival T/C
Assay: NCI In Vivo Anticancer Drug Screen. Data for tumor model B16 Melanoma (intraperitoneal) in B6D2F1 (BDF1) mice
Conditions: endpoint: median survival time, higher = longer survival
Summary of the method: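 Mice with transplantable tumors; drug vs vehicle groups; endpoint survival or tumor size; value = T/C.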

[1] = dose: 25.0 mg/kg/injection, schedule: Q01DX009 (ip), vehicle: Klucel (hydroxypropylcellulose) (HPC)
[2] = dose: 25.0 mg/kg/injection, schedule: Q01DX009 (ip), vehicle: saline with Tween-80
[3] = dose: 50.0 mg/kg/injection, schedule: Q01DX009 (ip), vehicle: saline with Tween-80
[4] = dose: 50.0 mg/kg/injection, schedule: Q04DX003 (ip), vehicle: saline with Tween-80
[5] = dose: 100.0 mg/kg/injection, schedule: Q01DX009 (ip), vehicle: saline with Tween-80
[6] = dose: 100.0 mg/kg/injection, schedule: Q04DX003 (ip), vehicle: saline with Tween-80
[7] = dose: 100.0 mg/kg/injection, schedule: Q01DX009 (ip), vehicle: Klucel (hydroxypropylcellulose) (HPC)
[8] = dose: 200.0 mg/kg/injection, schedule: Q01DX009 (ip), vehicle: Klucel (hydroxypropylcellulose) (HPC)
[9] = dose: 400.0 mg/kg/injection, schedule: Q01DX009 (ip), vehicle: Klucel (hydroxypropylcellulose) (HPC)
[10] = dose: 0.78 mg/kg/injection, schedule: Q01DX009 (ip), vehicle: Klucel (hydroxypropylcellulose) (HPC)
[11] = dose: 1.56 mg/kg/injection, schedule: Q01DX009 (ip), vehicle: Klucel (hydroxypropylcellulose) (HPC)
[12] = dose: 200.0 mg/kg/injection, schedule: Q01DX009 (ip), vehicle: saline with Tween-80
[13] = dose: 100.0 mg/kg/injection, schedule: Q04DX003 (ip), vehicle: saline
[14] = dose: 50.0 mg/kg/injection, schedule: Q04DX003 (ip), vehicle: saline
[15] = dose: 50.0 mg/kg/injection, schedule: Q01DX009 (ip), vehicle: Klucel (hydroxypropylcellulose) (HPC)
[16] = dose: 50.0 mg/kg/injection, schedule: Q01DX009 (ip), vehicle: saline
[17] = dose: 100.0 mg/kg/injection, schedule: Q01DX009 (ip), vehicle: saline
[18] = dose: 200.0 mg/kg/injection, schedule: Q01DX009 (ip), vehicle: saline
[19] = dose: 3.12 mg/kg/injection, schedule: Q01DX009 (ip), vehicle: Klucel (hydroxypropylcellulose) (HPC)
[20] = dose: 6.25 mg/kg/injection, schedule: Q01DX009 (ip), vehicle: Klucel (hydroxypropylcellulose) (HPC)
[21] = dose: 6.25 mg/kg/injection, schedule: Q01DX009 (ip), vehicle: saline
[22] = dose: 75.0 mg/kg/injection, schedule: Q01DX009 (ip), vehicle: Klucel (hydroxypropylcellulose) (HPC)
[23] = dose: 150.0 mg/kg/injection, schedule: Q01DX009 (ip), vehicle: Klucel (hydroxypropylcellulose) (HPC)
[24] = dose: 300.0 mg/kg/injection, schedule: Q01DX009 (ip), vehicle: Klucel (hydroxypropylcellulose) (HPC)
[25] = dose: 12.5 mg/kg/injection, schedule: Q01DX009 (ip), vehicle: Klucel (hydroxypropylcellulose) (HPC)
[26] = dose: 12.5 mg/kg/injection, schedule: Q01DX009 (ip), vehicle: saline

NC(N)=N/N=C(/c1ccccc1)c1ccc(F)cc1
T/C (dose: 20.0 mg/kg/injection, schedule: Q01DX009 (ip), vehicle: saline): 110 % of control | T/C (dose: 40.0 mg/kg/injection, schedule: Q01DX009 (ip), vehicle: saline): 115 % of control | T/C (dose: 80.0 mg/kg/injection, schedule: Q01DX009 (ip), vehicle: saline): 102 % of control

CCCCc1ccc(-n2c(C)c(COC(=O)NC)c(COC(=O)NC)c2C)cc1
T/C [1]: 159 % of control

CN1CCc2cc3c(cc2C(=O)Cc2ccc4c(c2C1)OCO4)OCO3
T/C [2]: 115 % of control | T/C (dose: 25.0 mg/kg/injection, schedule: Q04DX003 (ip), vehicle: saline with Tween-80): 117 % of control | T/C [3]: 112 % of control | T/C [4]: 114 % of control | T/C [5]: 105 % of control | T/C [6]: 94 % of control

Cc1ccc(NC(=S)N(C)C)cc1C
T/C [7]: 100 % of control | T/C [8]: 100 % of control | T/C [9]: 92 % of control

Nc1ccccc1SC1CC(=O)N(c2cccc(Cl)c2)C1=O (stereo not given)
T/C [7]: 95 % of control | T/C [8]: 90 % of control

CC1CN1CC(O)C(O)CN1CC1C (stereo not given)
T/C (dose: 0.25 mg/kg/injection, schedule: Q01DX009 (ip), vehicle: saline): 100 % of control | T/C (dose: 0.4 mg/kg/injection, schedule: Q01DX009 (ip), vehicle: saline): 110 % of control | T/C (dose: 0.5 mg/kg/injection, schedule: Q01DX009 (ip), vehicle: saline): 107 % of control and 102 % of control | T/C (dose: 0.6 mg/kg/injection, schedule: Q01DX009 (ip), vehicle: saline): 118 % of control | T/C (dose: 0.63 mg/kg/injection, schedule: Q01DX009 (ip), vehicle: saline): 150 % of control | T/C (dose: 0.8 mg/kg/injection, schedule: Q01DX009 (ip), vehicle: saline): 110 % of control | T/C (dose: 0.9 mg/kg/injection, schedule: Q01DX009 (ip), vehicle: saline): 153 % of control | T/C (dose: 1.25 mg/kg/injection, schedule: Q01DX009 (ip), vehicle: saline): 93 % of control | T/C (dose: 2.0 mg/kg/injection, schedule: Q01DX009 (ip), vehicle: saline): 156 % of control and 151 % of control | T/C (dose: 2.5 mg/kg/injection, schedule: Q01DX009 (ip), vehicle: saline): 106 % of control

Cc1cc(C)c(CN)cc1CN
T/C [2]: 108 % of control | T/C [3]: 112 % of control

O=C1C=CC(=O)c2c(O)c(CO)c(CO)c(O)c21
T/C (dose: 0.39 mg/kg/injection, schedule: Q01DX009 (ip), vehicle: Klucel (hydroxypropylcellulose) (HPC)): 98 % of control | T/C [10]: 89 % of control | T/C [11]: 87 % of control

ClC1CCCC[N-]1.ClC1CCCC[N-]1.[Cl][Pt+2][Cl] (stereo not given)
T/C (dose: 12.5 mg/kg/injection, schedule: Q01DX009 (ip), vehicle: saline with Tween-80): 91 % of control | T/C [2]: 97 % of control | T/C [3]: 89 % of control | T/C [5]: 108 % of control | T/C [12]: 105 % of control

O=C(O)CC[P+](c1ccccc1)(c1ccccc1)c1ccccc1
T/C [13]: 101 % of control | T/C (dose: 200.0 mg/kg/injection, schedule: Q04DX003 (ip), vehicle: saline): 116 % of control | T/C (dose: 400.0 mg/kg/injection, schedule: Q04DX003 (ip), vehicle: saline): 116 % of control

O=[N+]([O-])O.O=[N+]([O-])O.[O]=[Zr]
T/C (dose: 12.5 mg/kg/injection, schedule: Q04DX003 (ip), vehicle: saline): 97 % of control | T/C (dose: 25.0 mg/kg/injection, schedule: Q04DX003 (ip), vehicle: saline): 90 % of control | T/C [14]: 95 % of control

CCOc1cc(C2=NNc3n[nH]c(=S)n3N2)ccc1O
T/C [1]: 96 % of control | T/C (dose: 25.0 mg/kg/injection, schedule: Q04DX003 (ip), vehicle: Klucel (hydroxypropylcellulose) (HPC)): 97 % of control | T/C [15]: 100 % of control | T/C (dose: 50.0 mg/kg/injection, schedule: Q04DX003 (ip), vehicle: Klucel (hydroxypropylcellulose) (HPC)): 102 % of control | T/C (dose: 100.0 mg/kg/injection, schedule: Q04DX003 (ip), vehicle: Klucel (hydroxypropylcellulose) (HPC)): 122 % of control

ClCC[N+]12CC[N+](CCCl)(CC1)C2 (tested in a mixture with another compound)
T/C [16]: 120 % of control | T/C [17]: 115 % of control | T/C [18]: 121 % of control

O=[N+]([O-])c1ccc(OCc2ccc(S(=O)(=O)F)c(Cl)c2)c(Cl)c1
T/C [7]: 102 % of control | T/C [8]: 100 % of control | T/C [9]: 97 % of control

CN(C)CCCCO
T/C [16]: 96 % of control | T/C [17]: 96 % of control | T/C [18]: 89 % of control

CCN(CC)C(=S)SSC(=S)N(CC)CC
T/C [10]: 110 % of control | T/C [11]: 86 % of control | T/C [19]: 97 % of control | T/C [20]: 105 % of control | T/C [1]: 92 % of control

c1cc[c]([Sn]([c]2ccccc2)([c]2ccccc2)[n]2cccc2)cc1
T/C [21]: 115 % of control

Cc1ccc(NC(=O)c2ccccc2Cl)cc1Cl
T/C [22]: 103 % of control | T/C [23]: 103 % of control | T/C [24]: 100 % of control

C=C(Br)CN(CC)CC
T/C [20]: 100 % of control | T/C [25]: 92 % of control | T/C [1]: 103 % of control

CC[N](CC)[Ge]([CH2]C)[CH2]C.CC[N](CC)[Ge]([CH2]C)[CH2]C
T/C [21]: 100 % of control | T/C [26]: 99 % of control | T/C (dose: 25.0 mg/kg/injection, schedule: Q01DX009 (ip), vehicle: saline): 88 % of control | T/C [16]: 86 % of control

COc1ccc(-c2ccc(OC)c(OC)c2OC)c(N)c1
T/C [5]: 107 % of control | T/C [12]: 107 % of control | T/C (dose: 400.0 mg/kg/injection, schedule: Q01DX009 (ip), vehicle: saline with Tween-80): 94 % of control

O=C(CCCN1CCC(n2c(=O)[nH]c3ccccc32)CC1)c1ccc(F)cc1
T/C [10]: 121 % of control | T/C [19]: 86 % of control | T/C [20]: 92 % of control | T/C [25]: 89 % of control | T/C [1]: 89 % of control and 94 % of control

C[N+](C)([O-])CCC=C1c2ccccc2CCc2ccccc21
T/C [21]: 95 % of control | T/C [26]: 90 % of control | T/C [16]: 90 % of control

CN(N=O)C(N)=O
T/C (dose: 3.13 mg/kg/injection, schedule: Q01DX009 (ip), vehicle: saline): 114 % of control | T/C [21]: 116 % of control

ClCCCCCCBr
T/C [22]: 122 % of control | T/C [23]: 122 % of control | T/C [24]: 105 % of control

CCc1ccccc1NC(=O)Nc1ccc(Cl)cc1
T/C (dose: 100.0 mg/kg/injection, schedule: Q01DX009 (ip), vehicle: gum acacia): 101 % of control | T/C (dose: 200.0 mg/kg/injection, schedule: Q01DX009 (ip), vehicle: gum acacia): 97 % of control | T/C (dose: 400.0 mg/kg/injection, schedule: Q01DX009 (ip), vehicle: gum acacia): 93 % of control

CC1(C)N=C(N)N=C(N)N1c1cccc(C#N)c1
T/C (dose: 25.0 mg/kg/injection, schedule: Q01DX005 (ip), vehicle: saline): 95 % of control | T/C (dose: 50.0 mg/kg/injection, schedule: Q01DX005 (ip), vehicle: saline): 100 % of control | T/C [14]: 115 % of control | T/C (dose: 100.0 mg/kg/injection, schedule: Q01DX005 (ip), vehicle: saline): 104 % of control | T/C [13]: 93 % of control

O=[N+]([O-])c1ccc(N2CCC(CCCC3CCN(c4ccc([N+](=O)[O-])cc4[N+](=O)[O-])CC3)CC2)c([N+](=O)[O-])c1
T/C [1]: 106 % of control | T/C [7]: 112 % of control

O=C(CN1C(=O)c2ccccc2C1=O)OC(c1ccccc1)c1ccccc1
T/C [15]: 90 % of control | T/C [7]: 90 % of control

CC(C)C(=O)NNCc1ccccc1
T/C [20]: 95 % of control | T/C [25]: 97 % of control | T/C [1]: 95 % of control | T/C [15]: 90 % of control

C1=CC2C=CC12 (stereo not given)
T/C [4]: 91 % of control | T/C [6]: 89 % of control
